Data published in patent US11395847B2, “Acylated GLP-1/GLP-2 dual agonists” (Zealand Pharma A/S, priority 2016, dated 2022).
Where two headings read alike, the source gives them in different places. Where a SMILES comes first, the peptide text is derived from it.

Tests used:
human GLP-2 receptor = target: T1, human GLP-2 receptor (Homo sapiens, UniProt O95838, D470N); experiment: GLP-2 receptor potency assay (cAMP ALPHASCREEN, HEK293 cells stably expressing GLP-2 R); format: cell-based; conditions: cAMP response, HEK293 cells expressing human GLP-2 R; read-out: EC50 GLP-2
T1 construct: expressed in transfected cells
T1 sequence (O95838 1-553 D470N): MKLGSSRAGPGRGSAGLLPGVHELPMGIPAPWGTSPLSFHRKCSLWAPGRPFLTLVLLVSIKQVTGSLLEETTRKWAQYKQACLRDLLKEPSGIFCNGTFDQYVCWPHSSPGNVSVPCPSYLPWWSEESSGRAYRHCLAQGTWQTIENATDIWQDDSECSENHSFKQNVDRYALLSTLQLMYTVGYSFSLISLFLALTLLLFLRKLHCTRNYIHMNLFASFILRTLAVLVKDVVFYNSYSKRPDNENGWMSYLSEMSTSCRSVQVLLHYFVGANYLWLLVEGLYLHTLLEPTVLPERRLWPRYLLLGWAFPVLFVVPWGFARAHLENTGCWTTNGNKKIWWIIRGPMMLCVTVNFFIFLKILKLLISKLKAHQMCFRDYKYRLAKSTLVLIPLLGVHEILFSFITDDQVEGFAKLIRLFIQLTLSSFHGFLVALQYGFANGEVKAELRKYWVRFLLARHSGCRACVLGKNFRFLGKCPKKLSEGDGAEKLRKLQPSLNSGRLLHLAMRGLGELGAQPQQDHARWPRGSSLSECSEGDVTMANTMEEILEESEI
In short: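 HEK293 clones stably transfected with the human GLP-2 receptor, selected with G418, were used. Intracellular cAMP was quantified by AlphaScreen. Responses were normalised to positive and vehicle controls, and EC50 and maximal response were taken from concentration-response curves.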

[1] = Chemical stability (RP-HPLC normalized purity after incubation at 40° C.); format: physicochemical; conditions: 14-day incubation, 0.2 mg/ml, normalized purity (area-%); for pH 7 normalized stability: pH 7, 40° C.
In short: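 Peptide at 0.2 mg/ml final in water adjusted to pH 6, 7, 7.5 or 9, incubated at 40° C for 14 days. Purity measured as main-peak area-% by C18 RP-HPLC (acetonitrile/TFA/water gradient, UV 220 nm) and normalized to T=0 set at 100 for each pH.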

[2] = Solubility assessment (turbidity absorbance at 325 nm); format: physicochemical
In short: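 Peptide stock at 2 mg/ml in water at pH 2.5 diluted 1:1 into 100 mM acetate (pH 4.0, 5.0), histidine (pH 6.0, 7.0) or phosphate (pH 6.0, 7.0, 7.5) buffer. Absorbance at 280 and 325 nm read at ambient temperature (typically 25 °C), single samples (n=1).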

[3] = 100 mM acetate buffer pH 4.0, ambient temperature, read-out: Solubility Acetate buffer pH 4
[4] = 100 mM acetate buffer pH 5.0, ambient temperature, read-out: Solubility Acetate buffer pH 5
[5] = 100 mM histidine buffer pH 6.0, ambient temperature, read-out: Solubility Histidine buffer pH 6
[6] = 100 mM histidine buffer pH 7.0, ambient temperature, read-out: Solubility Histidine buffer pH 7
[7] = 100 mM phosphate buffer pH 6.0, ambient temperature, read-out: Solubility Phosphate buffer pH 6
[8] = 100 mM phosphate buffer pH 7.0, ambient temperature, read-out: Solubility Phosphate buffer pH 7
[9] = 100 mM phosphate buffer pH 7.5, ambient temperature, read-out: Solubility Phosphate buffer pH 7.5

EC50 (human GLP-2 receptor)	pH 7 normalized stability [1]	solubility [2, 3]	solubility [2, 4]	solubility [2, 5]	solubility [2, 6]	solubility [2, 7]	solubility [2, 8]	solubility [2, 9]	pH 6 normalized stability ([1]; pH 6, 40° C.)	Compound
0.33 nM	A (>90% normalised stability)	< 1000 µg/mL	< 1000 µg/mL	≥ 1000 µg/mL	≥ 1000 µg/mL	≥ 1000 µg/mL	≥ 1000 µg/mL	≥ 1000 µg/mL	–	CC[C@H](C)[C@H](NC(=O)[C@H](Cc1ccccc1)NC(=O)[C@H](CC(=O)O)NC(=O)[C@H](CCCNC(=N)N)NC(=O)[C@H](C)NC(=O)[C@H](C)NC(=O)[C@H](CCC(N)=O)NC(=O)[C@H](CCCCNC(=O)CC[C@H](NC(=O)CCCCCCCCCCCCCCCCC(=O)O)C(=O)O)NC(=O)[C@H](CC(=O)O)NC(=O)[C@H](CC(C)C)NC(=O)[C@@H](NC(=O)[C@@H](NC(=O)[C@H](C)NC(=O)[C@H](CC(C)C)NC(=O)[C@H](CCC(=O)O)NC(=O)[C@H](CO)NC(=O)[C@@H](NC(=O)[C@H](Cc1ccccc1)NC(=O)[C@@H](NC(=O)CNC(=O)[C@H](CCC(=O)O)NC(=O)C(C)(C)NC(=O)[C@@H](N)Cc1c[nH]cn1)[C@@H](C)O)[C@@H](C)O)[C@@H](C)O)[C@@H](C)CC)C(=O)N[C@@H](C)C(=O)N[C@@H](Cc1c[nH]c2ccccc12)C(=O)N[C@@H](CC(C)C)C(=O)N[C@H](C(=O)N[C@@H](CCC(=O)O)C(=O)N[C@@H](Cc1c[nH]cn1)C(=O)N[C@@H](CCCCN)C(=O)N[C@H](C(=O)N[C@H](C(=O)N[C@@H](CC(=O)O)C(=O)O)[C@@H](C)O)[C@@H](C)CC)[C@@H](C)CC [Compound 25] (HELM PEPTIDE1{H.[Aib].E.G.T.F.T.S.E.L.A.T.I.L.D.K.Q.A.A.R.D.F.I.A.W.L.I.E.H.K.I.T.D}|PEPTIDE2{[O=C(O)CCCCCCCCCCCCCCCCC(=O)[*:2]].[gGlu]}$PEPTIDE1,PEPTIDE2,16:R3-2:R2$$$V2.0)
0.2 nM	B (>80% stability)	< 1000 µg/mL	< 1000 µg/mL	≥ 1000 µg/mL	≥ 1000 µg/mL	≥ 1000 µg/mL	≥ 1000 µg/mL	≥ 1000 µg/mL	A (>90% normalised stability)	CC[C@H](C)[C@H](NC(=O)[C@H](CC(C)C)NC(=O)[C@H](Cc1c[nH]c2ccccc12)NC(=O)[C@H](C)NC(=O)[C@@H](NC(=O)[C@H](Cc1ccccc1)NC(=O)[C@H](CC(=O)O)NC(=O)[C@H](CCCNC(=N)N)NC(=O)[C@H](C)NC(=O)[C@H](C)NC(=O)[C@H](CCC(N)=O)NC(=O)[C@H](CCCCNC(=O)CC[C@H](NC(=O)CCCCCCCCCCCCCCCCC(=O)O)C(=O)O)NC(=O)[C@H](CC(=O)O)NC(=O)[C@H](CC(C)C)NC(=O)[C@@H](NC(=O)[C@@H](NC(=O)[C@H](C)NC(=O)[C@H](CC(C)C)NC(=O)[C@H](CCC(=O)O)NC(=O)[C@H](CO)NC(=O)[C@@H](NC(=O)[C@H](Cc1ccccc1)NC(=O)[C@H](CO)NC(=O)CNC(=O)[C@H](CCC(=O)O)NC(=O)C(C)(C)NC(=O)[C@@H](N)Cc1c[nH]cn1)[C@@H](C)O)[C@@H](C)O)[C@@H](C)CC)[C@@H](C)CC)C(=O)N[C@@H](C)C(=O)N[C@@H](Cc1c[nH]cn1)C(=O)N[C@@H](CCCCN)C(=O)N[C@H](C(=O)N[C@H](C(=O)N[C@@H](CC(=O)O)C(=O)O)[C@@H](C)O)[C@@H](C)CC [Compound 22] (HELM PEPTIDE1{H.[Aib].E.G.S.F.T.S.E.L.A.T.I.L.D.K.Q.A.A.R.D.F.I.A.W.L.I.A.H.K.I.T.D}|PEPTIDE2{[O=C(O)CCCCCCCCCCCCCCCCC(=O)[*:2]].[gGlu]}$PEPTIDE1,PEPTIDE2,16:R3-2:R2$$$V2.0)
